≈ marks a conversion by molar mass, not a printed value. Structures can show the parent of a compound that is named as a salt. Where two headings read alike, the source gives them in different places.
Tests used:
Experiment in all cases: MIC, agar dilution test
Assay type in all cases: cell-based
E. coli 445/7 = details: Escherichia coli, agar dilution test/isosensitest medium
Source text: (§1) | Agar dilution test/isosensitest medium

E. coli Neumann = details: Escherichia coli, agar dilution test/isosensitest medium
Source text: as §1

E. coli T 7 = details: Escherichia coli, T7
Source text: as §1

Klebsiella 6179 = details: agar dilution test/isosensitest medium
Source text: as §1

Klebsiella 63 = details: agar dilution test/isosensitest medium
Source text: as §1

Proteus 1017 = details: agar dilution test/isosensitest medium
Source text: as §1

Providencia 12012 = details: agar dilution test/isosensitest medium
Source text: as §1

Providencia 12052 = details: agar dilution test/isosensitest medium
Source text: as §1

Pseudom. Ellsworth = details: agar dilution test/isosensitest medium
Source text: as §1

Staph. 133 = details: agar dilution test/isosensitest medium
Source text: as §1

Staph. 1756 = details: agar dilution test/isosensitest medium
Source text: as §1

Staph. FK 422 = details: agar dilution test/isosensitest medium
Source text: as §1

[1] = 445/7, E. coli 455/7 (second MIC table)
[2] = E. coli T 7, agar dilution test/isosensitest medium, read-out: MIC
[3] = E. coli 445/7 (first MIC table)

SMILES | MIC (E. coli 445/7; [1]) [µg/mL] | MIC (E. coli Neumann) [µg/mL] | MIC (E. coli T 7; [2]) [µg/mL] | MIC (Klebsiella 6179) [µg/mL] | MIC (Klebsiella 63) [µg/mL] | MIC (Proteus 1017) [µg/mL] | MIC (Providencia 12012) [µg/mL] | MIC (Providencia 12052) [µg/mL] | MIC (Pseudom. Ellsworth) [µg/mL] | MIC (Staph. 133) [µg/mL] | MIC (Staph. 1756) [µg/mL] | MIC (Staph. FK 422) [µg/mL] | MIC (E. coli 445/7; [3]) [µg/mL] | MIC (E. coli T 7) [µg/mL]
CC(=O)CN1CCN(c2c(Cl)cc3c(=O)c(C(=O)O)cn(C4CC4)c3c2F)CC1.Cl [Example 13, 6-chloro-1-cyclopropyl-8-fluoro-1,4-dihydro-4-oxo-7-[4-(2-oxopropyl)-1-piperazinyl]-3-quinolinecarboxylic acid hydrochloride] | 8 | ≤ 0.015 | ≤ 0.015 | 0.06 | ≤ 0.015 | ≤ 0.015 | ≤ 0.015 | 16 | 0.125 | 0.25 | 0.25 | 0.25 |  | 
O=C(CN1CCN(c2c(Cl)cc3c(=O)c(C(=O)O)cn(C4CC4)c3c2F)CC1)c1ccccc1 [Example 14, 6-chloro-1-cyclopropyl-8-fluoro-1,4-dihydro-4-oxo-7-[4-(2-oxo-2-phenylethyl)-1-piperazinyl]-3-quinolinecarboxylic acid] | 2 (≈ 4.13 µM) | ≤ 0.015 | ≤ 0.015 | 0.25 (≈ 0.517 µM) | 0.06 (≈ 0.124 µM) | 0.125 (≈ 0.258 µM) | 0.06 (≈ 0.124 µM) | 16 (≈ 33.1 µM) |  |  |  |  |  | 
CC1CN(c2c(Cl)cc3c(=O)c(C(=O)O)cn(C4CC4)c3c2Cl)CCN1 (stereo not drawn) [Example 22, 6,8-dichloro-1-cyclopropyl-1,4-dihydro-7-(3-methyl-1-piperazinyl)-4-oxo-3-quinolinecarboxylic acid] | 2 (≈ 5.05 µM) | ≤ 0.015 | ≤ 0.015 | 0.06 (≈ 0.151 µM) | 0.03 (≈ 0.0757 µM) | 0.06 (≈ 0.151 µM) | 0.06 (≈ 0.151 µM) | 2 (≈ 5.05 µM) |  | 0.125 (≈ 0.315 µM) | 0.125 (≈ 0.315 µM) | 0.125 (≈ 0.315 µM) |  | 
O=C(O)c1cn(C2CC2)c2c(Cl)c(N3CCNCC3)c(F)cc2c1=O [Example 21, hydrochloride] | 1 | ≤ 0.015 | ≤ 0.015 | 0.03 | 0.06 | 0.03 | 0.06 | 1 |  | 0.06 | 0.125 | 0.125 |  | 
O=C(O)c1cn(C2CC2)c2c(F)c(N3CCN(CCO)CC3)c(Cl)cc2c1=O [Example 7] |  | ≤ 0.015 | ≤ 0.015 | 0.06 (≈ 0.146 µM) | 0.06 (≈ 0.146 µM) | 0.125 (≈ 0.305 µM) |  | 16 (≈ 39 µM) |  | 0.25 (≈ 0.61 µM) | 0.5 (≈ 1.22 µM) | 0.5 (≈ 1.22 µM) | 16 (≈ 39 µM) | 
CCC1CN(c2c(Cl)cc3c(=O)c(C(=O)O)cn(C4CC4)c3c2F)CCN1 (stereo not drawn) [Example 3] |  | ≤ 0.015 | ≤ 0.015 | ≤ 0.015 | 0.03 (≈ 0.0762 µM) |  |  | 16 (≈ 40.6 µM) |  | 0.25 (≈ 0.635 µM) | 0.25 (≈ 0.635 µM) | 0.25 (≈ 0.635 µM) | 8 (≈ 20.3 µM) | 
O=C(O)c1cn(C2CC2)c2c(F)c(N3CCNCC3)c(Cl)cc2c1=O [Example 1, 6-chloro-1-cyclopropyl-8-fluoro-1,4-dihydro-4-oxo-7-(1-piperazinyl)-3-quinolinecarboxylic acid] |  | ≤ 0.015 | ≤ 0.015 | 0.03 (≈ 0.082 µM) | ≤ 0.015 | ≤ 0.015 | ≤ 0.015 | 8 (≈ 21.9 µM) | 0.06 (≈ 0.164 µM) | 0.25 (≈ 0.683 µM) | 0.25 (≈ 0.683 µM) | 0.25 (≈ 0.683 µM) | 4 (≈ 10.9 µM) | 
O=C(O)c1cn(C2CC2)c2c(F)c(N3CCNC(C4CCCCC4)C3)c(Cl)cc2c1=O (stereo not drawn) [Example 8] |  |  | ≤ 0.015 |  |  |  |  |  |  | 0.06 (≈ 0.134 µM) | 0.06 (≈ 0.134 µM) | 0.06 (≈ 0.134 µM) |  | 
CN1CCN(c2c(Cl)cc3c(=O)c(C(=O)O)cn(C4CC4)c3c2F)CC1 [Example 6] |  | ≤ 0.015 | ≤ 0.015 | 0.015 (≈ 0.0395 µM) | 0.015 (≈ 0.0395 µM) | 0.06 (≈ 0.158 µM) | 0.03 (≈ 0.079 µM) | 4 (≈ 10.5 µM) |  | 0.25 (≈ 0.658 µM) | 0.5 (≈ 1.32 µM) | 0.025 (≈ 0.0658 µM) | 4 (≈ 10.5 µM) | 
CN1CCN(c2c(F)cc3c(=O)c(C(=O)O)cn(C4CC4)c3c2Cl)CC1 [Example 19, 8-chloro-1-cyclopropyl-6-fluoro-1,4-dihydro-7-(4-methyl-1-piperazinyl)-4-oxo-3-quinolinecarboxylic acid] | 1 (≈ 2.63 µM) | ≤ 0.015 | ≤ 0.015 | 0.03 (≈ 0.079 µM) | 0.03 (≈ 0.079 µM) | 0.03 (≈ 0.079 µM) | 0.03 (≈ 0.079 µM) | 4 (≈ 10.5 µM) | 0.125 (≈ 0.329 µM) | 0.06 (≈ 0.158 µM) | 0.06 (≈ 0.158 µM) | 0.06 (≈ 0.158 µM) |  | 
CCN1CCN(c2c(Cl)cc3c(=O)c(C(=O)O)cn(C4CC4)c3c2F)CC1 [Example 10, 6-chloro-1-cyclopropyl-7-(4-ethyl-1-piperazinyl)-8-fluoro-1,4-dihydro-4-oxo-3-quinolinecarboxylic acid] |  | ≤ 0.015 |  | 0.06 (≈ 0.152 µM) | 0.125 (≈ 0.317 µM) |  |  |  |  |  |  |  | 16 (≈ 40.6 µM) | 0.025 (≈ 0.0635 µM)
CC1CN(c2c(Cl)cc3c(=O)c(C(=O)O)cn(C4CC4)c3c2F)CCN1 (stereo not drawn) [Example 2] |  | ≤ 0.015 | ≤ 0.015 | 0.03 (≈ 0.079 µM) | 0.03 (≈ 0.079 µM) |  | 0.03 (≈ 0.079 µM) | 16 (≈ 42.1 µM) |  | 0.25 (≈ 0.658 µM) | 0.5 (≈ 1.32 µM) | 0.25 (≈ 0.658 µM) | 8 (≈ 21.1 µM) | 
CC1CN(c2c(F)cc3c(=O)c(C(=O)O)cn(C4CC4)c3c2Cl)CCN1 (stereo not drawn) [Example 20, 8-chloro-1-cyclopropyl-6-fluoro-1,4-dihydro-7-(3-methyl-1-piperazinyl)-4-oxo-3-quinolinecarboxylic acid] | 1 (≈ 2.63 µM) | ≤ 0.015 | ≤ 0.015 | 0.03 (≈ 0.079 µM) | ≤ 0.015 | ≤ 0.015 | 0.03 (≈ 0.079 µM) | 4 (≈ 10.5 µM) | 0.25 (≈ 0.658 µM) | 0.06 (≈ 0.158 µM) | 0.06 (≈ 0.158 µM) | 0.06 (≈ 0.158 µM) |  | 
CC1CN(c2c(Cl)cc3c(=O)c(C(=O)O)cn(C4CC4)c3c2F)CC(C)N1 (stereo not drawn) [Example 5] |  | ≤ 0.015 | ≤ 0.015 | 0.03 (≈ 0.0762 µM) | 0.03 (≈ 0.0762 µM) |  |  | 32 (≈ 81.3 µM) |  | 0.5 (≈ 1.27 µM) | 0.5 (≈ 1.27 µM) | 0.25 (≈ 0.635 µM) | 8 (≈ 20.3 µM) | 
CC1CN(c2c(Cl)cc3c(=O)c(C(=O)O)cn(C4CC4)c3c2F)CC(C)O1 (stereo not drawn) [Example 17, 6-chloro-1-cyclopropyl-8-fluoro-1,4-dihydro-7-(2,6-dimethyl-4-morpholinyl)-4-oxo-3-quinolinecarboxylic acid] |  |  |  |  |  |  |  |  |  |  | ≤ 0.015 | ≤ 0.015 |  | 
CCn1cc(C(=O)O)c(=O)c2cc(F)c(N3CCNCC3)cc21 [Norfloxacin, 1-ethyl-6-fluoro-1,4-dihydro-4-oxo-7-(1-piperazinyl)-3-quinolinecarboxylicacid, reference compound] | 16 (≈ 50.1 µM) | 0.06 (≈ 0.188 µM) | 0.03 (≈ 0.0939 µM) | 0.25 (≈ 0.783 µM) | 0.125 (≈ 0.391 µM) | 0.03 (≈ 0.0939 µM) | 0.03 (≈ 0.0939 µM) | 64 (≈ 200 µM) | 0.125 (≈ 0.391 µM) | 0.5 (≈ 1.57 µM) | 1 (≈ 3.13 µM) | 0.5 (≈ 1.57 µM) |  | 
CC(=O)CCN1CCN(c2c(Cl)cc3c(=O)c(C(=O)O)cn(C4CC4)c3c2F)CC1 [Example 12, 6-chloro-1-cyclopropyl-8-fluoro-1,4-dihydro-4-oxo-7-[4-(3-oxobutyl)-1-piperazinyl]-3-quinolinecarboxylic acid] | 8 (≈ 18.4 µM) | ≤ 0.015 | ≤ 0.015 | 0.06 (≈ 0.138 µM) | ≤ 0.015 | 0.03 (≈ 0.0688 µM) | ≤ 0.015 | 16 (≈ 36.7 µM) | 0.125 (≈ 0.287 µM) | 0.25 (≈ 0.574 µM) | 0.25 (≈ 0.574 µM) | 0.25 (≈ 0.574 µM) |  | 
